Source: patent publication US9896659B2, “Methods, kits, and compositions for stem cell self-renewal” (STOWERS INSTITUTE FOR MEDICAL RESEARCH, priority 2011, dated 2018)
“Also recorded” adds a separate entry of the source.

Legend:
LSK Flk2^− cells [1] = assay: 10-day culture of bone marrow MNCs with PI3K inhibitor, CHIR99021 or without insulin, expansion of LSK Flk2^− cells; assay type: cell-based, mouse; details: 10 days culture; 250 nM CHIR99021; NVP-BEZ235 at indicated concentrations
LSK Flk2^− cells [2] = assay: 14-day ex vivo expansion of bone marrow MNCs in ST media with or without GSK3β inhibitor, FACS; assay type: cell-based, mouse; details: 14-day culture of MNCs; average; FIG. 26B (250 nM CHIR99021)
Method: For the experiments set forth in this Example, a particular HSC expansion media was used. This HSC expansion media consists of the following ingredients: (1) StemSpan Media (Stem Cell Technologies; Cat. No. 09600) (StemSpan Media consists of Iscove's-modified Dulbecco's medium (IMDM) supplemented with 1% bovine serum albumin, 10 μg/ml recombinant human insulin, 200 μg/ml iron-saturated transferrin, 0.1 mM 2-mercaptoethanol and 2 mM glutamine.); (2)10 μg/ml Heparin (Sigma; Cat. No. H-3149); (3) 0.5× Penicillin/Streptomycin (Sigma; Cat. No. P4333); (4) 10 ng/ml recombinant mouse (rm) or recombinant human (rh) Stem Cell Factor (SCF) (Biovision; Cat. No. 4328-10 or 4327-10, respectively); (5) 20 ng/ml rm or rh Thrombopoietin (Tpo) (Cell Sciences, Inc; Cat. No. CRT401B or CRT400B, respectively). CHIR99021 (250 nM) (Stemgent, Inc; Cat. No. 04-0004) may be added to this HSC expansion media as indicated.
Bone marrow cells were harvested from C57Bl/6 (CD45.2) mice and made into a single cell suspension by gently drawing through a 22 g needle several times. Mobilized peripheral blood or bone marrow from human patients was harvested at the University of Kansas Medical Center (Kansas City, Mo. USA). […] Mononuclear cells were isolated from mouse bone marrow using Histopaque 1077 (Sigma; Cat. No. 10771) and human blood or bone marrow using Ficoll-Paque PLUS (Stem Cell Technologies; Cat. No. 07917) according to the manufacturers' instructions. Cells were washed and resuspended in HSC expansion media. Cells were counted and a fraction of mononuclear cells (MNCs) were stained for lineage markers using CD3, CD4, CD8, B220, IgM, Mac-1, Gr1, and Ter119 antibodies along with Kit, Sca-1, and Flk2 for mouse HSC analysis or CD34 and CD38 for human HSC analysis. 1×10^6 cells/0.1 ml were stained at 4° C. for 30 minutes using 0.05 μg of antibody for each lineage marker and 0.2 μg for remaining antibodies. […] Frequency of putative HSCs (lineage negative, Sca-1^+, Kit^+, Flk-1^− for mouse or CD34^+, CD38^− cells for human) was determined by analyzing >3×10^6 cells per sample independently in triplicate. […]

[3] = system: lethally irradiated CD45.1 recipient mice; assay: Competitive repopulation assay of 14-day cultures; assay type: in vivo, mouse; details: for Average repopulation: long-term engraftment (FIGS. 5 and 13)
Method: For the experimental results shown in FIG. 13A, sorted LSK Flk2^− cells and unsorted MNCs containing a known quantity of LSK Flk2^− cells (CD45.2^+) were cultured for 14 days in ST media with and without CHIR99021. The cultured product of 100 sorted or 5 unsorted LSK Flk2^− cells per mouse were transplanted into lethally irradiated recipients (CD45.1^+). 5 freshly isolated, unsorted LSK Flk2^− cells per mouse were transplanted into a separate group. 1×10^5 freshly isolated CD45.1^+ competitor/radioprotective cells were also added per mouse. Peripheral blood analysis of recipients at 16 weeks post-transplant depicts % chimerism.
(§1) Bone marrow mononuclear cells (MNCs) were fractionated and the concentration of lineage marker negative, Sca-1^+, c-Kit^+, Flk2^− (LSKF^−) cells was determined. MNCs containing a known quantity of LSKF^− cells were cultured for 14 days in media containing SCF and Tpo (ST), ST media with 250 nM CHIR99021 or ST media with 2 mM lithium chloride (LiCl) as indicated. After 14 days, the cellular product of these cultures was transplanted into lethally-irradiated recipients (10 Gray units) at a dosage corresponding to an original input into culture of MNCs containing 5 LSKF^− cells per mouse for each group. 1×10^5 competitor bone marrow cells congenic with the hosts (CD45.1^+) were included per mouse. At 4 weeks post-transplant, peripheral blood was collected from each transplant recipient, and donor vs. host derived hematopoietic cells were determined by FACS analysis.
as §1, with “At 16” for “At 4”
Cells were incubated at 37° C. with 5% CO2 and 5% O2 (balance N2) for 14 days. […]

[4] = system: lethally irradiated recipients; assay: Limiting-dilution competitive repopulating unit (CRU) assay; assay type: in vivo, mouse; details: CHIR99021 versus ST media (2/0.4)
Method: FIGS. 27A-C show ex vivo expansion of normal, long-term repopulating HSC. MNCs containing a known quantity of LSK Flk2^− cells were cultured for 14 days with and without CHIR99021. The cultured progeny of MNCs containing a pre-culture dosage of 0.1, 0.3 or 1.0 LSK Flk2^− cells were transplanted into lethally irradiated recipients along with 1×10^5 rescue/competitor cells (n=10 for each of 6 groups). Peripheral blood was analyzed at 16 weeks post-transplant and competitive repopulating unit (CRU) frequency was determined using L-Calc software (Stem Cell Technologies, Inc.) based on Poisson statistics (Zhang, C. C. & Lodish, H. F. Murine hematopoietic stem cells change their surface phenotype during ex vivo expansion. Blood, Vol. 105, pages 4314-4320 (2005); Miller, C. L. & Eaves, C. J. Expansion in vitro of adult murine hematopoietic stem cells with transplantable lympho-myeloid reconstituting ability. Proceedings of the National Academy of Sciences of the United States of America, Vol. 94, pages 13648-13653 (1997)). […] Peripheral blood was analyzed for percent donor repopulation at 16 weeks post-1°, 2°, and 3° transplant (upper panels) and percent mature donor-derived B, T and myeloid cells (lower panels). […]

Cc1c[nH]c(-c2cnc(NCCNc3ccc(C#N)cn3)nc2-c2ccc(Cl)cc2Cl)n1 [CHIR99021]
Expansion of LSK Flk2^− cells (LSK Flk2^− cells [1]): increased the expansion
Increase in total number of LSK Flk2^− cells (LSK Flk2^− cells [2]): 93 fold
Repopulation capacity of ex vivo expanded HSCs ([3]; 4 weeks post-transplant, 250 nM CHIR99021 or 2 mM LiCl in ST media, 14 days): enhance repopulation capacity of ex vivo expanded hematopoietic stem cells
Long-term repopulation / engraftment of ex vivo expanded HSCs ([3]; 16 weeks post-transplant, 250 nM CHIR99021 or 2 mM LiCl in ST media, 14 days): enhance long-term repopulation capacity of ex vivo expanded hematopoietic stem cells; also recorded: enhances long-term engraftment of ex vivo expanded HSCs
Average repopulation ([3]; 100 sorted putative HSCs cultured 14 days): 12.3%
Average repopulation ([3]; unsorted MNC cultures, 14 days): 64.8%
Increase of CRU frequency [4]: 5 fold
